Measured values: patent US20130023501A1, “PHARMACEUTICAL COMPOSITION COMPRISING SOLVENT MIXTURE AND A VITAMIN D DERIVATIVE OR ANALOGUE” (LEO PHARMA A/S, priority 2009, published 2013)

Key:
[1] = Skin penetration and permeation, Franz diffusion cells; assay type: in vitro ADME; conditions: addition of menthol to the composition; 21 hours; pig ear skin; FIG. 1
Procedure: To investigate the skin penetration and permeation of calcipotriol from compositions of the invention, a skin diffusion experiment was conducted. Full thickness skin from pig ears was used in the study. The ears were kept frozen at −18° C. before use. On the day prior to the experiment the ears were placed in a refrigerator (5±3° C.) for slow defrosting. On the day of the experiment, the hairs were removed using a veterinary hair trimmer. The skin was cleaned for subcutaneous fat using a scalpel and two pieces of skin were cut from each ear and mounted on Franz diffusion cells in a balanced order.
Static Franz-type diffusion cells with an available diffusion area of 3.14 cm^2 and receptor volumes ranging from 8.6 to 11.1 ml—were used in substantially the manner described by T. J. Franz, “The finite dose technique as a valid in vitro model for the study of percutaneous absorption in man”, in Current Problems in Dermatology, 1978, J. W. H. Mall (Ed.), Karger, Basel, pp. 58-68. The specific volume was measured and registered for each cell. A magnetic bar was placed in the receptor compartment of each cell. […]
The in vitro skin permeation of each test composition was tested in 6 replicates (i.e. n=6). […] A glass spatula was used for the application, and the residual amount of the composition was determined so as to give the amount of the composition actually applied on the skin. […]

[2] = Amount of MCT required to dissolve calcipotriol in a tested ointment composition; assay type: physicochemical
[3] = one study, Hannuksela et al. 1975; cited from earlier work

| Structure (SMILES) | skin permeation of calcipotriol [1] | MCT required to completely dissolve calcipotriol [2] | number of irritant reactions to propylene glycol [3] |
| --- | --- | --- | --- |
| C=C1/C(=C\C=C2/CCC[C@]3(C)[C@@H]([C@H](C)/C=C/[C@@H](O)C4CC4)CC[C@@H]23)C[C@@H](O)C[C@@H]1O [calcipotriol, Calcipotriol] | significant increase | about 50% | – |
| CC(O)CO (stereo not drawn) [propylene glycol] | – | – | 12.5% |
